# Patent US9695155B2, “Herbicidal substituted pyrimidinyloxy benzene compounds” (E. I. DU PONT DE NEMOURS AND COMPANY, priority 2013, dated 2017)
# What was measured:
# barnyardgrass [1] = experiment: Test A preemergence; assay type: in vivo, Echinochloa crus-galli
# Procedure, shortened: (§1)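 Greenhouse pot test, loam/sand soil. Formulation: non-phytotoxic solvent mix plus surfactant. Pre: directed spray onto soil after sowing. Post: plants at 1–2 leaf, 2–10 cm. Rated visually vs untreated controls at ~10 d, 0 (no effect) to 100 (complete control).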
# large (Lg) crabgrass [2] = experiment: Test A preemergence; assay type: in vivo, Digitaria sanguinalis
# Procedure, shortened: as §1
# giant foxtail [3] = experiment: Test A preemergence; assay type: in vivo, Setaria faberii; settings: for Foxtail, Giant plant response rating: 0 to 100 scale, 0 no effect, 100 complete control, approx. 10 days
# Procedure, shortened: as §1
# morningglory [4] = experiment: Test A preemergence; assay type: in vivo, Ipomoea spp.; settings: for Morningglory plant response rating: 0 to 100 scale, 0 no effect, 100 complete control, approx. 10 days
# Procedure, shortened: as §1
# pigweed [5] = experiment: Test A preemergence; assay type: in vivo, Amaranthus retroflexus; settings: for Pigweed plant response rating: 0 to 100 scale, 0 no effect, 100 complete control, approx. 10 days
# Procedure, shortened: as §1
# velvetleaf [6] = experiment: Test A preemergence; assay type: in vivo, Abutilon theophrasti; settings: for Velvetleaf plant response rating: 0 to 100 scale, 0 no effect, 100 complete control, approx. 10 days
# Procedure, shortened: as §1
# wheat [7] = experiment: Test A preemergence; assay type: in vivo, Triticum aestivum; settings: for Wheat plant response rating: 0 to 100 scale, 0 no effect, 100 complete control, approx. 10 days
# Procedure, shortened: as §1
# corn [8] = experiment: Test A preemergence; assay type: in vivo, Zea mays
# Procedure, shortened: as §1
# barnyardgrass [9] = experiment: Test A postemergence; assay type: in vivo, Echinochloa crus-galli
# Procedure, shortened: as §1
# large (Lg) crabgrass [10] = experiment: Test A postemergence; assay type: in vivo, Digitaria sanguinalis
# Procedure, shortened: as §1
# giant foxtail [11] = experiment: Test A postemergence; assay type: in vivo, Setaria faberii
# Procedure, shortened: as §1
# morningglory [12] = experiment: Test A postemergence; assay type: in vivo, Ipomoea spp.
# Procedure, shortened: as §1
# pigweed [13] = experiment: Test A postemergence; assay type: in vivo, Amaranthus retroflexus
# Procedure, shortened: as §1
# velvetleaf [14] = experiment: Test A postemergence; assay type: in vivo, Abutilon theophrasti
# Procedure, shortened: as §1
# wheat [15] = experiment: Test A postemergence; assay type: in vivo, Triticum aestivum
# Procedure, shortened: as §1
# corn [16] = experiment: Test A postemergence; assay type: in vivo, Zea mays
# Procedure, shortened: as §1
# rice = experiment: Test B flooded paddy test; assay type: in vivo, Oryza sativa; settings: Flood, 250 g ai/ha; 0 to 100 scale where 0 is no effect and 100 is complete control
# Procedure, shortened: (§2)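 2-leaf stage plants; pots flooded to 3 cm, compound added to paddy water, depth maintained. Greenhouse 13–15 d. Visual rating vs untreated controls, 0 (no effect) to 100 (complete control); dash = no result.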
# sedge, umbrella = experiment: Test B flooded paddy test; assay type: in vivo, Cyperus difformis; settings: Flood, 250 g ai/ha; 0 to 100 scale where 0 is no effect and 100 is complete control
# Procedure, shortened: as §2
# Heteranthera limosa = experiment: Test B flooded paddy test; assay type: in vivo; settings: Flood, 250 g ai/ha; 0 to 100 scale where 0 is no effect and 100 is complete control
# Procedure, shortened: as §2
# barnyardgrass [17] = experiment: Test B flooded paddy test; assay type: in vivo, Echinochloa crus-galli; settings: Flood, 250 g ai/ha; 0 to 100 scale where 0 is no effect and 100 is complete control
# Procedure, shortened: as §2
# [18] = 125 g ai/ha, 0 to 100 scale where 0 is no effect and 100 is complete control
# [19] = 500 g ai/ha, 0 to 100 scale, 0 no effect, 100 complete control, approx. 10 days
# [20] = 500 g ai/ha, 0 to 100 scale, 0 no effect, 100 complete control
# [21] = 1000 g ai/ha, 0 to 100 scale, 0 no effect, 100 complete control
smiles,measurement,setting,value
O=[N+]([O-])c1cccc(Oc2ncc(Cl)cn2)c1-n1cc(Br)cn1 [Compound 63],"Plant response rating, Barnyardgrass",barnyardgrass [1]; [18],0
same,Barnyardgrass plant response rating,barnyardgrass [1]; [19],70
same,"Plant response rating, Crabgrass, Large",large (Lg) crabgrass [2]; [18],80
same,"Crabgrass, Large plant response rating",large (Lg) crabgrass [2]; [19],100
same,"Plant response rating, Foxtail, Giant",giant foxtail [3]; [18],20
same,"Foxtail, Giant plant response rating",giant foxtail [3]; 500 g ai/ha,100
same,"Plant response rating, Morningglory",morningglory [4]; [18],0
same,Morningglory plant response rating,morningglory [4]; 500 g ai/ha,0
same,"Plant response rating, Pigweed",pigweed [5]; [18],90
same,Pigweed plant response rating,pigweed [5]; 500 g ai/ha,100
same,"Plant response rating, Velvetleaf",velvetleaf [6]; [18],0
same,Velvetleaf plant response rating,velvetleaf [6]; 500 g ai/ha,20
same,"Plant response rating, Wheat",wheat [7]; [18],0
same,Wheat plant response rating,wheat [7]; 500 g ai/ha,0
same,"Plant response rating, Corn",corn [8]; [18],0
same,Corn plant response rating,corn [8]; [19],0
same,"Plant response rating, Barnyardgrass",barnyardgrass [9]; [18],30
same,"Plant response rating, Barnyardgrass",barnyardgrass [9]; [20],70
same,"Plant response rating, Crabgrass, Large",large (Lg) crabgrass [10]; [18],30
same,"Plant response rating, Crabgrass, Large",large (Lg) crabgrass [10]; [20],90
same,"Plant response rating, Foxtail, Giant",giant foxtail [11]; [18],20
same,"Plant response rating, Foxtail, Giant",giant foxtail [11]; [20],80
same,"Plant response rating, Morningglory",morningglory [12]; [18],30
same,"Plant response rating, Morningglory",morningglory [12]; [20],80
same,"Plant response rating, Pigweed",pigweed [13]; [18],70
same,"Plant response rating, Pigweed",pigweed [13]; [20],100
same,"Plant response rating, Velvetleaf",velvetleaf [14]; [18],60
same,"Plant response rating, Velvetleaf",velvetleaf [14]; [20],100
same,"Plant response rating, Wheat",wheat [15]; [18],0
same,"Plant response rating, Wheat",wheat [15]; [20],10
same,"Plant response rating, Corn",corn [16]; [18],0
same,"Plant response rating, Corn",corn [16]; [20],30
same,"Plant response rating, Rice",rice,0
same,"Plant response rating, Sedge, Umbrella","sedge, umbrella",0
same,"Plant response rating, Ducksalad",Heteranthera limosa,0
same,"Plant response rating, Barnyardgrass",barnyardgrass [17],0
Clc1cnc(Oc2cccc(I)c2-n2cc(Br)cn2)nc1 [Compound 66],"Plant response rating, Barnyardgrass",barnyardgrass [1]; [21],90
same,"Plant response rating, Crabgrass, Large",large (Lg) crabgrass [2]; [21],100
same,"Foxtail, Giant plant response rating",giant foxtail [3]; 1000 g ai/ha,100
same,Morningglory plant response rating,morningglory [4]; 1000 g ai/ha,40
same,Pigweed plant response rating,pigweed [5]; 1000 g ai/ha,100
same,Velvetleaf plant response rating,velvetleaf [6]; 1000 g ai/ha,90
same,Wheat plant response rating,wheat [7]; 1000 g ai/ha,10
same,"Plant response rating, Corn",corn [8]; [21],30
same,"Plant response rating, Barnyardgrass",barnyardgrass [9]; [21],80
same,"Plant response rating, Crabgrass, Large",large (Lg) crabgrass [10]; [21],100
same,"Plant response rating, Foxtail, Giant",giant foxtail [11]; [21],100
same,"Plant response rating, Morningglory",morningglory [12]; [21],100
same,"Plant response rating, Pigweed",pigweed [13]; [21],100
same,"Plant response rating, Velvetleaf",velvetleaf [14]; [21],100
same,"Plant response rating, Wheat",wheat [15]; [21],20
same,"Plant response rating, Corn",corn [16]; [21],40
same,"Plant response rating, Rice",rice,0
same,"Plant response rating, Sedge, Umbrella","sedge, umbrella",0
same,"Plant response rating, Ducksalad",Heteranthera limosa,30
same,"Plant response rating, Barnyardgrass",barnyardgrass [17],0
FC(F)(F)COc1cccc(Oc2ncc(Cl)cn2)c1-n1cc(Br)cn1 [Compound 69],"Plant response rating, Barnyardgrass",barnyardgrass [1]; [21],70
same,"Plant response rating, Crabgrass, Large",large (Lg) crabgrass [2]; [21],90
same,"Foxtail, Giant plant response rating",giant foxtail [3]; 1000 g ai/ha,90
same,Morningglory plant response rating,morningglory [4]; 1000 g ai/ha,10
same,Pigweed plant response rating,pigweed [5]; 1000 g ai/ha,100
same,Velvetleaf plant response rating,velvetleaf [6]; 1000 g ai/ha,80
same,Wheat plant response rating,wheat [7]; 1000 g ai/ha,20
same,"Plant response rating, Corn",corn [8]; [21],0
same,"Plant response rating, Barnyardgrass",barnyardgrass [9]; [21],50
same,"Plant response rating, Crabgrass, Large",large (Lg) crabgrass [10]; [21],80
same,"Plant response rating, Foxtail, Giant",giant foxtail [11]; [21],70
same,"Plant response rating, Morningglory",morningglory [12]; [21],30
same,"Plant response rating, Pigweed",pigweed [13]; [21],100
same,"Plant response rating, Velvetleaf",velvetleaf [14]; [21],60
same,"Plant response rating, Wheat",wheat [15]; [21],30
same,"Plant response rating, Corn",corn [16]; [21],20
same,"Plant response rating, Rice",rice,0
same,"Plant response rating, Sedge, Umbrella","sedge, umbrella",0
same,"Plant response rating, Ducksalad",Heteranthera limosa,0
same,"Plant response rating, Barnyardgrass",barnyardgrass [17],0
